Results taken from PMC4512239 (Clinical cancer research : an official journal of the …, 2015).
“Also recorded” adds a separate entry of the source.

Assay: phase I safety and tolerability
Type: in vivo, human

Structure (SMILES): CNC(=O)c1cccc(-c2ccc3c(N4CCOC[C@@H]4C)nc(N4CCOC[C@@H]4C)nc3n2)c1 [AZD2014]
- Pruritus, Any grade (Part A 100mg BD solution (N=4)): 0 Number (%) of patients
- Pruritus, CTCAE grade 1-2 (Part A 100mg BD solution (N=4)): 0 Number (%) of patients
- Pruritus, CTCAE grade >=3 (Part A 100mg BD solution (N=4)): 0 Number (%) of patients
- Rash, Any grade (Part A 100mg BD solution (N=4)): 0 Number (%) of patients
- Rash, CTCAE grade 1-2 (Part A 100mg BD solution (N=4)): 0 Number (%) of patients
- Rash, CTCAE grade >=3 (Part A 100mg BD solution (N=4)): 0 Number (%) of patients
- Vomiting, Any grade (Part A 100mg BD solution (N=4)): 4 (100.0) Number (%) of patients
- Vomiting, CTCAE grade 1-2 (Part A 100mg BD solution (N=4)): 4 (100.0) Number (%) of patients
- Vomiting, CTCAE grade >=3 (Part A 100mg BD solution (N=4)): 0 Number (%) of patients
- grade 3 or 4 hyperglycemia (RP2D of 50 mg BD): no grade 3 or 4 hyperglycemia was seen
- fatigue, most common AEs (at the MTD (50 mg BD)): 78%
- fatigue, nausea and mucositis equal to or greater than grade 3, patients (at the MTD (50 mg BD)): 5%
- nature of the dose limiting toxicities (dose range 25-100 mg): fatigue and mucositis
- recommended phase II dose (RP2D) (oral, continuous twice daily dosing): 50 mg BD
- maximally tolerated dose (MTD) (oral, continuous twice daily dosing, solution): 50 mg BD
- pneumonitis (phase I study): no patients were diagnosed with pneumonitis; also recorded: no instances of pneumonitis
- Anemia, Any grade (total (N=56)): 9 (16.1) Number (%) of patients
- Anemia, CTCAE grade 1-2 (total (N=56)): 7 (12.5) Number (%) of patients
- Anemia, CTCAE grade >=3 (total (N=56)): 2 (3.6) Number (%) of patients
- Back pain, Any grade (total (N=56)): 9 (16.1) Number (%) of patients
- Back pain, CTCAE grade 1-2 (total (N=56)): 8 (14.3) Number (%) of patients
- Back pain, CTCAE grade >=3 (total (N=56)): 1 (1.8) Number (%) of patients
- Constipation, Any grade (total (N=56)): 16 (28.6) Number (%) of patients
- Constipation, CTCAE grade 1-2 (total (N=56)): 16 (28.6) Number (%) of patients
- Constipation, CTCAE grade >=3 (total (N=56)): 0 Number (%) of patients
- Cough, Any grade (total (N=56)): 12 (21.4) Number (%) of patients
- Cough, CTCAE grade 1-2 (total (N=56)): 12 (21.4) Number (%) of patients
- Cough, CTCAE grade >=3 (total (N=56)): 0 Number (%) of patients
- Decreased appetite, Any grade (total (N=56)): 26 (46.4) Number (%) of patients
- Decreased appetite, CTCAE grade 1-2 (total (N=56)): 26 (46.4) Number (%) of patients
- Decreased appetite, CTCAE grade >=3 (total (N=56)): 0 Number (%) of patients
- Diarrhea, Any grade (total (N=56)): 23 (41.1) Number (%) of patients
- Diarrhea, CTCAE grade 1-2 (total (N=56)): 23 (41.1) Number (%) of patients
- Diarrhea, CTCAE grade >=3 (total (N=56)): 0 Number (%) of patients
- Dry mouth, Any grade (total (N=56)): 10 (17.9) Number (%) of patients
- Dry mouth, CTCAE grade 1-2 (total (N=56)): 10 (17.9) Number (%) of patients
- Dry mouth, CTCAE grade >=3 (total (N=56)): 0 Number (%) of patients
- Dyspnea, Any grade (total (N=56)): 11 (19.6) Number (%) of patients
- Dyspnea, CTCAE grade 1-2 (total (N=56)): 9 (16.1) Number (%) of patients
- Dyspnea, CTCAE grade >=3 (total (N=56)): 2 (3.6) Number (%) of patients
- Fatigue, Any grade (total (N=56)): 42 (75.0) Number (%) of patients
- Fatigue, CTCAE grade 1-2 (total (N=56)): 36 (64.3) Number (%) of patients
- Fatigue, CTCAE grade >=3 (total (N=56)): 6 (10.7) Number (%) of patients
- Hypokalemia, Any grade (total (N=56)): 9 (16.1) Number (%) of patients
- Hypokalemia, CTCAE grade 1-2 (total (N=56)): 8 (14.3) Number (%) of patients
- Hypokalemia, CTCAE grade >=3 (total (N=56)): 1 (1.8) Number (%) of patients
- Lower respiratory tract infection, Any grade (total (N=56)): 9 (16.1) Number (%) of patients
- Lower respiratory tract infection, CTCAE grade 1-2 (total (N=56)): 7 (12.5) Number (%) of patients
- Lower respiratory tract infection, CTCAE grade >=3 (total (N=56)): 2 (3.6) Number (%) of patients
- Mucositis, Any grade (total (N=56)): 30 (53.6) Number (%) of patients
- Mucositis, CTCAE grade 1-2 (total (N=56)): 27 (48.2) Number (%) of patients
- Mucositis, CTCAE grade >=3 (total (N=56)): 3 (5.4) Number (%) of patients
- Nausea, Any grade (total (N=56)): 30 (53.6) Number (%) of patients
- Nausea, CTCAE grade 1-2 (total (N=56)): 28 (50.0) Number (%) of patients
- Nausea, CTCAE grade >=3 (total (N=56)): 2 (3.6) Number (%) of patients
- Pruritus, Any grade (total (N=56)): 13 (23.2) Number (%) of patients
- Pruritus, CTCAE grade 1-2 (total (N=56)): 13 (23.2) Number (%) of patients
- Pruritus, CTCAE grade >=3 (total (N=56)): 0 Number (%) of patients
- Rash, CTCAE grade 1-2 (total (N=56)): 16 (28.6) Number (%) of patients
- Rash, CTCAE grade >=3 (total (N=56)): 3 (5.4) Number (%) of patients
- Vomiting, Any grade (total (N=56)): 16 (28.6) Number (%) of patients
- Vomiting, CTCAE grade 1-2 (total (N=56)): 15 (26.8) Number (%) of patients
- Vomiting, CTCAE grade >=3 (total (N=56)): 1 (1.8) Number (%) of patients
